Data as given in publication PMC4436313, “Novel Heparan Sulfate-Binding Peptides for Blocking Herpesvirus Entry” (PLoS ONE, 2015).
Ends that are not written are not given here.

Legend:
MEF 10.1 cells = experiment: Visualization of bound biotinylated peptide by fluorescence microscopy; assay type: binding, Mouse; settings: biotinylated peptide 1.6 μg/mL in PBS overnight at 4°C, fixed MEF cells, Alexa Fluor 594-conjugated streptavidin
Experimental: Coverslips with fixed MEF cells were prepared, washed in PBS, and blocked with 1% BSA/PBS for 5 min. Following a PBS wash, the nuclei were stained using Hoechst (Life Technologies Molecular Probes, Grand Island, NY) 1:100 in H2O for 30 min at 37°C. Cells were then blocked using a casein block solution (Scytek) for 5 min, AVIDIN/Biotin blocks (VECTOR) for 20 min each at room temperature (RT) followed by a 5 min PBS wash. Biotinylated p5+14 or CGGY-p5G (control) at 1.6 μg/mL in PBS was added and incubated overnight at 4°C. Following a PBS wash Alexa Fluor 594-conjugated streptavidin (Molecular Probes) was added at a 1:200 dilution in PBS for 1h at RT. Cells were then permeabilized with 0.2% Triton X-100 (Sigma) in PBS for 10 min at RT and washed with a solution of 1% BSA in PBS for 30 min. The cells were then stained with Alexa Fluor 488-conjugated phalloidin (Molecular Probes) at a 1:100 dilution of stock in 1% BSA/PBS, for 45 min at RT to visualize actin filaments. Slides were cover-slipped using a fluorescent mounting medium (Dako) to minimize photobleaching.
Fig 2 p5+14 binding to cells is charge dependent. (A) Predicted α-helix structure of peptide p5+14 based on ITASSER modeling. (B) Biotinylated peptide p5+14 (left panel) or CGGY-p5G (right panel) was added to MEF 10.1 cells followed by addition of Alexa Fluor 594-conjugated streptavidin (red). […]

[1] = system: HCMV TB40/E-pp150-GFP adsorption to HFF cells; experiment: Flow cytometric analysis of attached virus; assay type: cell-based, Human cytomegalovirus; settings: peptide 100μM, HFF cells at 4°C, 1/2 h, then HCMV TB40/E pp150-GFP MOI 10 for 1h; GFP MFI vs PBS treated cells; 3 replicates
Experimental: HFF cells were grown in a 24 well dish and allowed to reach ~80% confluency. The cells were cooled to 4°C to prevent virus internalization before addition of peptide (100μM) and incubated for ½ h. Following the incubation, HCMV TB40/E pp150-GFP was added (MOI 10) at 4°C and incubated for 1h. Following the incubation, cells were removed from the wells using non-enzymatic cell stripper solution (Corning), fixed (with paraformaldehyde) and the data acquired using a BD FACS Calibur flowcytometer (BD Biosciences). The data was analyzed using FlowJo software (TreeStar).
Fig 5 Peptide p5+14 blocks adsorption of MCMV. (A) MCMV was preincubated with p5+14 peptide (100 μM) before diluting the virus/peptide to an ineffective peptide concentration (1 μM) and assayed in the plaque reduction assay as described in materials and methods. As a control, virus and peptide (100 μM) were added to cells simultaneously. […] Plaque reduction was measured in a plaque reduction assay. […] (C) Adsorption of HCMV TB40/E-pp150-GFP (MOI 10) fusion protein expressing HCMV was measured via flowcytometry in the presence of p5+14 (green), control peptide CGGY-p5G (orange) and PBS (blue). […] Inset is a scatter plot of the mean fluorescence intensity (MFI) for GFP with the line representing average of 3 replicates +/- SD for the different treatments.

MCMV [2] = settings: for Plaque Reduction (Average from Fig 1): peptide 500 μg/ml, incubated with MEF 10.1 cells 30 min prior to MCMV (~100 pfu/well), percent reduction vs PBS-treated control, three independent experiments, at least three replicates each
Experimental: Peptides were screened for their ability to reduce viral infection using a plaque reduction assay. Cells were cultured in 12-well (VERO) or 24-well culture plates (MEF 10.1 and HFF). When cells reached ~80% confluence the media was removed and washed once with PBS before addition of peptide. As a control, cells were incubated with PBS alone. After a 30 min incubation with peptide in PBS, virus (~100 pfu/well for MCMV and ~30–40 pfu/well for HCMV and HSV) was added and incubated for another 90 min (HSV and HCMV) or 60 min (MCMV). Following virus incubation the peptide/virus mixture was removed and replaced with 0.75% carboxymethyl cellulose (Sigma Aldrich, St. Louis, MO) (CMC) + complete media (DMEM + P/S + L-Gln) for MCMV and HSV experiments or 0.5% agarose (Lonza, Rockland, ME) in complete media for HCMV experiments. The plates were incubated at 37° C in 5% CO2 for 4 days and when plaques began to develop, plates were stained with Coomassie stain (AMRESCO, Solon, Ohio). Due to the inability of HCMV to form distinct plaques on HAEC and ARPE-19 cells, infection in these cell types was measured by counting mCherry positive foci 14 days post infection. Plaques were counted manually using a dissection microscope. Data was analyzed using Prism 5.0 (GraphPad Software, La Jolla, CA). Data were expressed as percent infection (100 x (number of plaques after treatment/ the number of plaques in the PBS-treated wells)).
Seven synthetic peptides based on the structure of peptide p5 were screened for their ability to reduce MCMV infection in vitro (Table 1). In the initial screening assays all peptides were tested at a single concentration (500 μg/ml) using a plaque-reduction assay, in which mouse embryonic fibroblasts were incubated with the peptides for 30 min prior to the addition of virus.
(A) Peptides (500 μg/ml) with different net charges and lengths were incubated with cells 30 min prior to addition of MCMV (~100 pfu/well). Bars represent the average of the percent reduction in infection compared to PBS-treated control from three independent experiments with at least three replicates in each + SD. (B) p5+14 and CGGY-p5G (control peptide) were serially diluted and assayed in a plaque reduction assay as described in materials and methods.

[3] = Self-aggregation of peptide (data not shown); assay type: physicochemical
MCMV [4] = experiment: Heparin blockade of peptide-mediated plaque reduction; assay type: cell-based, murine CMV (MCMV)
Experimental: Peptide p5+14 (100 μM) was pre-incubated with heparin sodium salt (Acros Organics, NJ) at different concentrations for 1 h at 37°C. This heparin/peptide mix was added to the cells and incubated for 30 min at 37°C. Following the incubation, supernatant was aspirated and cells washed once with PBS to remove unbound/excess heparin or peptide. The cells were subsequently infected with ~100 pfu/well of MCMV. To test whether heparin treatment of cells interferes with virus infection, MEF 10.1 cells in a 24 well dish were pre-incubated with different concentrations of heparin for 1 hour and washed as described above. Following this pre-incubation, infection was initiated as described above. Finally to test the effect of heparin treatment on the infectivity of virus, MCMV was incubated with different concentrations of heparin for 1h before infecting cells. For all treatments, virus was removed 1h post infection and cells were overlaid with CMC. Plates were incubated for 4 days before staining and counting the plaques.
Fig 3 Soluble heparin interferes with peptide inhibition of virus infection. The effect of heparin on the activity of peptide and MCMV viral infectivity in vitro when (A) pre-incubated with the peptide (100 μM), (B) incubated with the cells before adding virus, and (C) pre-incubated with virus alone in a plaque reduction assay. […]

CGGYSGAQGAQAGQAGQAQGAQGAQAGQAGQ [CGGY-p5G, uncharged p5 variant, replaces Lys with Gly throughout; control peptide]
Binding of biotinylated peptide to mouse fibroblasts (MEF 10.1 cells): did not bind | Fluorescent virus attached to the cell surface [1]: no reduction in fluorescence

CGGYSKAQKAQAKQAKQAQKAQKAQAKQAKQ [CGGY-p5, p5 variant with N-terminal Cys residue generated to facilitate incorporation of 99mTc]
Plaque Reduction (Average from Fig 1) (MCMV [2]): ~61% | Self-aggregation [3]: prone to self-aggregation

GGGYSKAQKAQAKQAKQAQKAQKAQAKQAKQ [p5]
Plaque Reduction (Average from Fig 1) (MCMV [2]): ~53%

GGGYSRAQRAQARQARQAQRAQRAQARQARQ [p5R]
Blocking of viral infection compared to peptide p5 (MCMV [2]; from Fig 1A, 500 μg/ml, MCMV): 2 fold | Plaque Reduction (Average from Fig 1) (MCMV [2]): ~75%

GGGYSKAQKAQAKQAKQAQKAQKAQAKQAKQAQKAQKAQAKQAKQ [p5+14]
IC50 (MCMV [2]; read-out: IC50, reduction of MCMV infection, serial dilution of peptide, plaque reduction assay, MEF 10.1): 5.2 µM

MPRRR RIRRR QK [G2, reference compound]
Reduction in MCMV infection at 10 μM (MCMV [2]; peptide 10 μM, plaque reduction assay, comparison p5+14 vs G2): ineffective | Inhibition of MCMV infection at 100 μM (MCMV [2]; peptide 100 μM, plaque reduction assay, comparison p5+14 vs G2): effectively inhibited MCMV infection

heparin sodium salt
Reduction of infection, heparin pre-incubated with MCMV (MCMV [4]; MCMV incubated with heparin 1 h without peptide, all heparin concentrations ≥ 2 μg/mL): > 80% | MCMV infection after pre-incubation of the cells with heparin (MCMV [4]; MEF 10.1 cells pre-incubated with heparin 1 hour and washed prior to virus addition, no peptide): did not alter MCMV infection
